Results taken from ChEMBL document CHEMBL5727600, “1,4-dicarbonyl-piperidyl derivatives” (2020).

Tests used:
[1] = target: T1, Poly [ADP-ribose] polymerase tankyrase-1 (Homo sapiens, UniProt O95271); experiment: Biochemical Activity Assay: TNKS 1 and 2: The activity ELISA is performed in 384 well Glutathione coated microtiter plates (Express capture Glutathione coated plate, Biocat, Heidelberg, Germany). The plates are pre-equilibrated with PBS. Then the plates are incubated with 50 μl 20 ng/well GST-tagged Tnks-1 (1023-1327 aa, prepared in-house), respectively GST-tagged Tnks-2 (873-1166 aa, prepared in-house) in assay buffer (50 mM HEPES, 4 mM Mg-chloride, 0.05% Pluronic F-68, 2 mM DTT, pH 7.7) overnight at 4° C. The plates are washed 3 times with PBS-Tween-20. The wells are blocked by incubation at room temperature for 20 minutes with 50 μl blocking buffer (PBS, 0.05% Tween-20, 0.5% BSA). Afterwards the plates are washed 3 times with PBS-Tween-20. The enzymatic reaction is performed in 50 μl reaction solution (50 mM HEPES, 4 mM Mg-chloride, 0.05% Pluronic F-68, 1.4 mM DTT, 0.5% DMSO, pH 7.7) with 10 μM bio-NAD (Biolog, Life science Inst., Bremen, Germany) as co-substrate in the absence or presence of the test compound (10 dilution concentrations) for 1 hour at 30° C. The reaction is stopped by 3 times washing with PBS-Tween-20. For the detection 50 μl of 20 ng/μl Streptavidin, HRP conjugate (MoBiTec, Göttingen, Germany) in PBS/0.05% Tween-20/0.01% BSA are added and the plates are incubated for 30 minutes at room temperature. […]
T1 sequence (O95271 whole entry): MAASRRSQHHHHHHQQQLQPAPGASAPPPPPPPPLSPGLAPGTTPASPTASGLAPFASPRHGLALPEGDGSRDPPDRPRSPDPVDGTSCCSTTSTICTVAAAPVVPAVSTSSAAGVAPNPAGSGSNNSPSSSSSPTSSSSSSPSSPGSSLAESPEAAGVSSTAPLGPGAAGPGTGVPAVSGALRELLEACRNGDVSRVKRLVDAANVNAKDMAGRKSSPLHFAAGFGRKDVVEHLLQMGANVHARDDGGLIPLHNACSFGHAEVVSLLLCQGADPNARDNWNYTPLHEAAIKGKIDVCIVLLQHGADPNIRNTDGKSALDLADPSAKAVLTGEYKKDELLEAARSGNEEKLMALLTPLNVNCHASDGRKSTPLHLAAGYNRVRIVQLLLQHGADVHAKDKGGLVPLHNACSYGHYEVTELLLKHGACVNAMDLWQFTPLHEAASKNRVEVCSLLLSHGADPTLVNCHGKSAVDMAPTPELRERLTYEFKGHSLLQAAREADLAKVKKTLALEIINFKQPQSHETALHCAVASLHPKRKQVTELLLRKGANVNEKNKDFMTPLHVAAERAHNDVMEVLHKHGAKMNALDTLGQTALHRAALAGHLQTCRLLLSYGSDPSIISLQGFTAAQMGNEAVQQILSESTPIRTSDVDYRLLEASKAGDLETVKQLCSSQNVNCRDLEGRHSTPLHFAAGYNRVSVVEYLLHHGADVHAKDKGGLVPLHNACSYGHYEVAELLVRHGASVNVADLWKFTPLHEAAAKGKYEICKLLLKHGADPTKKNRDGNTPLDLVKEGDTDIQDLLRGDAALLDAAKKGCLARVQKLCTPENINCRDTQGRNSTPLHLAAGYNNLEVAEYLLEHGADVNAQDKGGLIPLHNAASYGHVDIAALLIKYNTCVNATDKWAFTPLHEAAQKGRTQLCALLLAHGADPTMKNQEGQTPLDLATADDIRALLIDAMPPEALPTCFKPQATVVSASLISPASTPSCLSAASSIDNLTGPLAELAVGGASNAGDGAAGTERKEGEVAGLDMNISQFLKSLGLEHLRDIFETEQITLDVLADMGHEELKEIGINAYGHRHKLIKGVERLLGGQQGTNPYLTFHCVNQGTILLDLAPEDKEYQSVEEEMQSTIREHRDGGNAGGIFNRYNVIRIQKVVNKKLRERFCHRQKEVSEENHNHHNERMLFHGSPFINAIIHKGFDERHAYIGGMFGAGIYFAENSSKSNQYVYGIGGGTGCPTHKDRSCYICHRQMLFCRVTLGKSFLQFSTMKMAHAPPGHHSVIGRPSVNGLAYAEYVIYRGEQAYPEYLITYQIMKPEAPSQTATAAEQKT

[2] = target: T2, Poly [ADP-ribose] polymerase tankyrase-2 (Homo sapiens, UniProt Q9H2K2); experiment: Biochemical Activity Assay: TNKS 1 and 2: The activity ELISA is performed in 384 well Glutathione coated microtiter plates (Express capture Glutathione coated plate, Biocat, Heidelberg, Germany). The plates are pre-equilibrated with PBS. Then the plates are incubated with 50 μl 20 ng/well GST-tagged Tnks-1 (1023-1327 aa, prepared in-house), respectively GST-tagged Tnks-2 (873-1166 aa, prepared …
T2 sequence (Q9H2K2 whole entry): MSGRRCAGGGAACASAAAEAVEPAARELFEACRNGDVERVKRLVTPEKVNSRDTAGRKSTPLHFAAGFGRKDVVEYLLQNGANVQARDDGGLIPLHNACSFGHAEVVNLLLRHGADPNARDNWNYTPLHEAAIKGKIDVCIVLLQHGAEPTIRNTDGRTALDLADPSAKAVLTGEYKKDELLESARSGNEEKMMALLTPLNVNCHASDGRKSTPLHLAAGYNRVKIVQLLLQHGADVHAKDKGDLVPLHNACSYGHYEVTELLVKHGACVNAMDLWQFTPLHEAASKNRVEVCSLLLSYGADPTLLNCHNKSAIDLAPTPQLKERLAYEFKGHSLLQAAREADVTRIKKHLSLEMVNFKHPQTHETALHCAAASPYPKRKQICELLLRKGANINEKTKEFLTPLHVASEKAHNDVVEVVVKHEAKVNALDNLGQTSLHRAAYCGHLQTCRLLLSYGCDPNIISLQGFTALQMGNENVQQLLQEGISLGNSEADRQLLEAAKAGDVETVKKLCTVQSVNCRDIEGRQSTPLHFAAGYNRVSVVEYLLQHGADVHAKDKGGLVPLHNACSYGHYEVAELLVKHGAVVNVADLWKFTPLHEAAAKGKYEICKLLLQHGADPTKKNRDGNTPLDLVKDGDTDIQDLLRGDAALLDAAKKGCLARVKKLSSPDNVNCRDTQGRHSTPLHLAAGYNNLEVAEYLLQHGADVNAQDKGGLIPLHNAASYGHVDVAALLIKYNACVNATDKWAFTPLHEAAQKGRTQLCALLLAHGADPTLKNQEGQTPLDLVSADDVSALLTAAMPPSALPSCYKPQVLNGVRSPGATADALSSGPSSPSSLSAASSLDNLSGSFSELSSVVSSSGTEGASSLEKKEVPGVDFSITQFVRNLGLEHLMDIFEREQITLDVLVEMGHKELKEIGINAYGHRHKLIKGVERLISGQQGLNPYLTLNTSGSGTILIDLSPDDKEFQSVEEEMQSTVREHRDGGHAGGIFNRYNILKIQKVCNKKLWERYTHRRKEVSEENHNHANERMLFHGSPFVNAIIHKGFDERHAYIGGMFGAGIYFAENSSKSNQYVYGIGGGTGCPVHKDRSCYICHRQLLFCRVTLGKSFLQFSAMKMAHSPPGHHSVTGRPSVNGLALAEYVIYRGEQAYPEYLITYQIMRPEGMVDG

| SMILES | IC50 [1] [nM] | IC50 [2] [nM] |
| --- | --- | --- |
| Cc1cc(F)cc2c(=O)[nH]c(C[C@@H](C)CC(=O)N3CCC(C(=O)c4cnn(C)c4)CC3)nc12 | 0.66 | 0.59 |
| Cc1cc(F)cc2c(=O)[nH]c(C[C@H](C)CC(=O)N3CCC(C(=O)c4cnn(C)c4)CC3)nc12 | 0.31 | 0.2 |
